The values that follow are results of earlier work, collected in publication PMC4704022, “Insights on FXR selective modulation. Speculation on bile acid chemical space in the discovery of potent and selective agonists” (Scientific Reports, 2016).

In general, EC50 refers to the concentration that produces a half-maximal response.

Data set [1] has as its system FXR. Details: method as in PMID 25247751. The conditions noted are these: read-out: EC50, FXR transactivation; cited from earlier work.
The next data set has as its system OSTα expression. The arrangement: method as in PMID 25247751. The conditions noted are these: compared with 6-ECDCA; cited from earlier work.
For data set [2], the system named is FXR. The arrangement: method as in PMID 10360171. The conditions noted are these: cited from earlier work.

`C[C@H](CCCOS(=O)(=O)O)[C@H]1CCC2C3C(CC[C@@]21C)[C@@]1(C)CCCC[C@H]1C[C@H]3O` (stereo partly drawn) [compound 5, 7α-hydroxy-5β-cholan-24-sulfate]: the 50% effective concentration (EC50) in the data set on FXR [1] was about 9 µM. For the same compound, in the data set on OSTα expression, the “Potency in inducing expression of OSTα (in words)” value is “comparable to that of 6-ECDCA”.

On to `C[C@H](CCC(=O)O)[C@H]1CC[C@H]2[C@@H]3CC[C@@H]4C[C@H](O)CC[C@]4(C)[C@H]3C[C@H](O)[C@]12C` [deoxycholic acid], for which the “FXR ligand strength relative to CDCA (in words)” value in the data set with FXR [2] is reported as “weaker natural ligands”.

Turning to `C[C@H](CCC(=O)O)[C@H]1CC[C@H]2[C@@H]3CC[C@@H]4C[C@H](O)CC[C@]4(C)[C@H]3CC[C@]12C` [lithocholic acid], in the data set with FXR [2], the “FXR ligand strength relative to CDCA (in words)” value was “weaker natural ligands”.
